Measurements as given in paper PMC6712483, “BlsA Is a Low to Moderate Temperature Blue Light Photoreceptor in the Human Pathogen Acinetobacter baumannii” (Frontiers in Microbiology, 2019).

Biological target: T1, BlsA (dBlsA, His-BlsA) (Acinetobacter baumannii, UniProt V5VB82)
T1 construct: gene ycgF; short BLUF protein, recombinant His-tag fusion, purified as in Abatedaga et al. 2017; approximately 20 kDa; residues named Tyr7, Gln51, Trp78, Trp92
Test: cofactor fluorescence emission and anisotropy (steady-state and time-resolved), UV-vis photocycle
Assay type: binding
Details: dark-adapted state; cofactor bound on purification; temperature series, compared with free FAD

T1 sequence (V5VB82 entry or part of it): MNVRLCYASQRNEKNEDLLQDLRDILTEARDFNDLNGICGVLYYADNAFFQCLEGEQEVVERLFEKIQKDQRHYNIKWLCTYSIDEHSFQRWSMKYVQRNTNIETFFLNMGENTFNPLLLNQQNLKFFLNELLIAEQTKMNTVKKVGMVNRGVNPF

Cc1cc2nc3c(=O)[nH]c(=O)nc-3n(C[C@H](O)[C@H](O)[C@H](O)COP(=O)(O)OP(=O)(O)OC[C@H]3O[C@@H](n4cnc5c(N)ncnc54)[C@H](O)[C@@H]3O)c2cc1C [FAD]
cofactor fluorescence emission and anisotropy (steady-state and time-resolved),: the steady-state anisotropy of the cofactor in dBlsA solutions is strongly decreased
